Assay results taken from patent US11566007B2, “Ras inhibitors” (Revolution Medicines, Inc., priority 2019, dated 2023).

Tests used:
NRAS Q61K = NRAS Q61K (Homo sapiens (Human), UniProt P01111+P62937, Q61K); test: Ras-Raf (BRAF RBD) disruption / FRET / MOA assay, NRAS Q61K; assay type: biochemical; conditions: NRAS Q61K; Ras-Raf disruption/FRET/MOA assay; read-out: IC50* NRAS Q61K FRET data
Method in brief: (§1)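 TR-FRET disruption of nucleotide-loaded Ras binding to BRAF RBD via compound-driven ternary complex with cyclophilin A. Compound as 10-point 3-fold series from 30 μM final, 3 h at 25° C, then anti-His Eu-W1024 (10 nM) and anti-GST allophycocyanin (50 nM) for 1.5 h. IC50 from decreased FRET ratio versus DMSO.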

KRAS WT = KRAS WT (Homo sapiens (Human), UniProt P01116+P62937); test: Ras-Raf (BRAF RBD) disruption / FRET / MOA assay, KRAS WT; assay type: biochemical; conditions: read-out: IC50* KRAS WT FRET data
Chain of KRAS WT (P01116-2 other isoform, or with tags, fused parts or gaps): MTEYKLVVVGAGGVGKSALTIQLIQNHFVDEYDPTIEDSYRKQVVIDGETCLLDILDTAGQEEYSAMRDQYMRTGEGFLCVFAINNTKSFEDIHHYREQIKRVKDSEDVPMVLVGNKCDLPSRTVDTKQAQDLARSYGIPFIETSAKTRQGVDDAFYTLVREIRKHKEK
Chain of KRAS WT (P62937 whole entry): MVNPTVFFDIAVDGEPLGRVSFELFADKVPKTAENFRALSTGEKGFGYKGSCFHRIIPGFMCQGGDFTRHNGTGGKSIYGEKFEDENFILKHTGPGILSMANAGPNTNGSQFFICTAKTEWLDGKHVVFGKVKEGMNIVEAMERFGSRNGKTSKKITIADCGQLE
Method in brief: (§2)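 Ras:RAF disruption was scored as a fall in TR-FRET ratio relative to DMSO. Compound ranged in 3-fold steps over 10 points from 30 μM final; incubation ran 3 h at 25° C, detection antibodies a further 1.5 h. Reported as IC50.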

K-Ras G13C = K-Ras G13C (Homo sapiens (Human), UniProt P01116+P62937, G13C); test: Ras-Raf (BRAF RBD) disruption / FRET / MOA assay, KRAS G13C; assay type: biochemical; conditions: KRAS G13C; Ras-Raf disruption/FRET/MOA assay; read-out: IC50* KRAS G13C FRET data
Chain of K-Ras G13C (P01116-2 other isoform, or with tags, fused parts or gaps G13C): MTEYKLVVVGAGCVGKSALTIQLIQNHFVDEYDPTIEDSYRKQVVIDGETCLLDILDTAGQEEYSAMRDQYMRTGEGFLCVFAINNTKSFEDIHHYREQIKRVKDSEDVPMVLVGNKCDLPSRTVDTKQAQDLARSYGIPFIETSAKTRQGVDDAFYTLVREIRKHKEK
Chain of K-Ras G13C (P62937 whole entry): as the sequence (P62937 whole entry) above
Method in brief: as §2

KRAS G12D = KRAS G12D (Homo sapiens (Human), UniProt P01116+P62937, G12D); test: Ras-Raf (BRAF RBD) disruption / FRET / MOA assay, KRAS G12D; assay type: biochemical; conditions: Ras-Raf disruption/FRET/MOA assay; class symbols; read-out: KRAS G12D FRET data IC50
Chain of KRAS G12D (P01116-2 other isoform, or with tags, fused parts or gaps G12D): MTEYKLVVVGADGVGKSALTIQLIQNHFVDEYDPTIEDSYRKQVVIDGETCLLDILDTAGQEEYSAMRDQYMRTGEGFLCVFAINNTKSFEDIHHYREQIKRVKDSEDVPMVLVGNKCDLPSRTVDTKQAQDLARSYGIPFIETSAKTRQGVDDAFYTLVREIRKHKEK
Chain of KRAS G12D (P62937 whole entry): as the sequence (P62937 whole entry) above
Method in brief: as §2

NCI-H358 (K-Ras G12C) = test: CellTiter-Glo cell viability assay, NCI-H358; assay type: cell-based, human; conditions: Homo sapiens, NCI-H358, 120 h, NCI-H358, 5-day treatment; class symbols; read-out: Additional H358 Cell Viability assay data (K-Ras G12C, IC50)
Method in brief: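 Luminescent viability readout on day 5 after direct compound addition to plated cells; plates sat ~30 min at room temperature before reading. Values expressed as percent of mean DMSO signal, curves fit with a four-parameter logistic model.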

K-Ras G12C = K-Ras G12C (Homo sapiens (Human), UniProt P01116+P62937, G12C); test: Ras-Raf (BRAF RBD) disruption / FRET / MOA assay, KRAS G12C; assay type: biochemical; conditions: KRAS G12C; Ras-Raf disruption/FRET/MOA assay; read-out: IC50* KRAS G12C FRET data
Chain of K-Ras G12C (P01116-2 other isoform, or with tags, fused parts or gaps G12C): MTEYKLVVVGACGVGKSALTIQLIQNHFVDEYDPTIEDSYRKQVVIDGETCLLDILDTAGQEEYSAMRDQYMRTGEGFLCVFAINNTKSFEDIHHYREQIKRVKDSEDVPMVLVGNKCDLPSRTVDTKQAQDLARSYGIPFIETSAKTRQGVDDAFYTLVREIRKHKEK
Chain of K-Ras G12C (P62937 whole entry): as the sequence (P62937 whole entry) above
Method in brief: as §2

KRAS G13D = KRAS G13D (Homo sapiens (Human), UniProt P01116+P62937, G13D); test: Ras-Raf (BRAF RBD) disruption / FRET / MOA assay, KRAS G13D; assay type: biochemical; conditions: read-out: IC50* KRAS G13D FRET data
Chain of KRAS G13D (P01116-2 other isoform, or with tags, fused parts or gaps G13D): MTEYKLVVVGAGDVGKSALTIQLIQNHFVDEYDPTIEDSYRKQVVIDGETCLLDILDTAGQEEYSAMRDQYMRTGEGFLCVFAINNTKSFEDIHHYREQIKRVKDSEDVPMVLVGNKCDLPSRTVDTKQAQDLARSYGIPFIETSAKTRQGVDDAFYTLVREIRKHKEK
Chain of KRAS G13D (P62937 whole entry): as the sequence (P62937 whole entry) above
Method in brief: as §2

KRAS Q61H = KRAS Q61H (Homo sapiens (Human), UniProt P01116+P62937, Q61H); test: Ras-Raf (BRAF RBD) disruption / FRET / MOA assay, KRAS Q61H; assay type: biochemical; conditions: Ras-Raf disruption/FRET/MOA assay; class symbols; read-out: KRAS Q61H FRET data IC50
Chain of KRAS Q61H (P01116-2 other isoform, or with tags, fused parts or gaps Q61H): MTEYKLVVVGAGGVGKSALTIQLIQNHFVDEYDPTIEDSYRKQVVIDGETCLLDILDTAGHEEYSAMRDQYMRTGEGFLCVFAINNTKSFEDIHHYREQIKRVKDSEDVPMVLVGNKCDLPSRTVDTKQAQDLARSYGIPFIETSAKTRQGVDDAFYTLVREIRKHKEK
Chain of KRAS Q61H (P62937 whole entry): as the sequence (P62937 whole entry) above
Method in brief: as §1

NRAS G12C = NRAS G12C (Homo sapiens (Human), UniProt P01111+P62937, G12C); test: Ras-Raf (BRAF RBD) disruption / FRET / MOA assay, NRAS G12C; assay type: biochemical; conditions: read-out: IC50* NRAS G12C FRET data
Chain of NRAS G12C (P01111 whole entry G12C): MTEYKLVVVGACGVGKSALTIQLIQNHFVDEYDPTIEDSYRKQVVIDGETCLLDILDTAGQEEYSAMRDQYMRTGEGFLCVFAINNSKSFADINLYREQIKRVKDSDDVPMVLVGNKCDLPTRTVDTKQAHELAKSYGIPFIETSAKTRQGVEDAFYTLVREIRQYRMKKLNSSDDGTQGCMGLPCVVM
Chain of NRAS G12C (P62937 whole entry): as the sequence (P62937 whole entry) above
Method in brief: as §2

NRAS Q61R = NRAS Q61R (Homo sapiens (Human), UniProt P01111+P62937, Q61R); test: Ras-Raf (BRAF RBD) disruption / FRET / MOA assay, NRAS Q61R; assay type: biochemical; conditions: NRAS Q61R; Ras-Raf disruption/FRET/MOA assay; read-out: IC50* NRAS Q61R FRET data
Chain of NRAS Q61R (P01111 whole entry Q61R): as the sequence (P01111 whole entry G12C) above, with C12G, Q61R counted along it
Chain of NRAS Q61R (P62937 whole entry): as the sequence (P62937 whole entry) above
Method in brief: as §1

KRAS G12S = KRAS G12S (Homo sapiens (Human), UniProt P01116+P62937, G12S); test: Ras-Raf (BRAF RBD) disruption / FRET / MOA assay, KRAS G12S; assay type: biochemical; conditions: Ras-Raf disruption/FRET/MOA assay; class symbols; read-out: KRAS G12S FRET data IC50
Chain of KRAS G12S (P01116-2 other isoform, or with tags, fused parts or gaps G12S): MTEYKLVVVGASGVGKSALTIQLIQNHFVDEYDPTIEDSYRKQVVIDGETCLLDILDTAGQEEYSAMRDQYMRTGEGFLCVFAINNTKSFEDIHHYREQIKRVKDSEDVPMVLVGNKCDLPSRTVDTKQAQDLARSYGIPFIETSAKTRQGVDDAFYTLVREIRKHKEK
Chain of KRAS G12S (P62937 whole entry): as the sequence (P62937 whole entry) above
Method in brief: as §2

NRAS WT = NRAS WT (Homo sapiens (Human), UniProt P01111+P62937); test: Ras-Raf (BRAF RBD) disruption / FRET / MOA assay, NRAS WT; assay type: biochemical; conditions: read-out: IC50* NRAS WT FRET data
Chain of NRAS WT (P01111 whole entry): as the sequence (P01111 whole entry G12C) above, with C12G counted along it
Chain of NRAS WT (P62937 whole entry): as the sequence (P62937 whole entry) above
Method in brief: as §1

Chain of NRAS Q61K (P01111 whole entry Q61K): as the sequence (P01111 whole entry G12C) above, with C12G, Q61K counted along it
Chain of NRAS Q61K (P62937 whole entry): as the sequence (P62937 whole entry) above

Row | SMILES | IC50 (NRAS Q61K) [nM] | IC50 (KRAS WT) [nM] | IC50 (K-Ras G13C) [nM] | IC50 (KRAS G12D) [nM] | IC50 (NCI-H358 (K-Ras G12C)) [nM] | IC50 (K-Ras G12C) [nM] | IC50 (KRAS G13D) [nM] | IC50 (KRAS Q61H) [nM] | IC50 (NRAS G12C) [nM] | IC50 (NRAS Q61R) [nM] | IC50 (KRAS G12S) [nM] | IC50 (NRAS WT) [nM]
1 | C=CC(=O)N1CC[C@H](C(=O)N(C)[C@H](C(=O)N[C@H]2Cc3cc(O)cc(c3)-c3ccc4c(c3)c(c(-c3cccc5c3COC5)n4CC)CC(C)(C)COC(=O)[C@@H]3CCCN(N3)C2=O)C(C)C)C1 [Example A227] | 1000 to 10000 | 1000 to 10000 | 1000 to 10000 | > 10000 | 100 to 1000 | 100 to 1000 | > 10000 | 1000 to 10000 | 100 to 1000 | > 10000 | 1000 to 10000 | 1000 to 10000
2 | C=CC(=O)N1CC[C@H](C(=O)N(C)[C@H](C(=O)N[C@H]2Cc3cc(O)cc(c3)-c3ccc4c(c3)c(c(-c3cnc(N(C)C)s3)n4CC)CC(C)(C)COC(=O)[C@@H]3CCCN(N3)C2=O)C(C)C)C1 [Example A302] | > 10000 | 1000 to 10000 | 100 to 1000 | > 10000 | 10 to 100 | 100 to 1000 | 1000 to 10000 | 1000 to 10000 | 100 to 1000 | > 10000 | 1000 to 10000 | > 10000
3 | C=CC(=O)N1CC[C@H](C(=O)N(C)[C@H](C(=O)N[C@H]2Cc3cc(O)cc(c3)-c3ccc4c(c3)c(c(-c3csc(N(C)C)n3)n4CC)CC(C)(C)COC(=O)[C@@H]3CCCN(N3)C2=O)C(C)C)C1 [Example A303] | > 10000 | > 10000 | > 10000 | > 10000 | 100 to 1000 | 1000 to 10000 | > 10000 | 1000 to 10000 | 1000 to 10000 | > 10000 | > 10000 | > 10000
4 | C=CC(=O)N1CCOC2(CCN(C(=O)N(C)[C@H](C(=O)N[C@H]3C[C@H]4CN(CCO4)c4ccc5c(c4)c(c(-c4cccnc4[C@H](C)OC)n5CC)CC(C)(C)COC(=O)[C@@H]4CCCN(N4)C3=O)C(C)C)CC2)C1 [Example A564] | 1000 to 10000 | 100 to 1000 | 10 to 100 | 1000 to 10000 | 10 to 100 | 100 to 1000 | 1000 to 10000 | 100 to 1000 | 100 to 1000 | 1000 to 10000 | 100 to 1000 | 100 to 1000
5 | CCn1c(-c2cccnc2[C@H](C)OC)c2c3cc(ccc31)-c1cccc(c1)CC(NC(=O)[C@H](C(C)C)N1CC[C@]3(CCN(C(=O)C#C[C@@H]4COCCN4C4COC4)C3)C1=O)C(=O)N1CCC[C@H](N1)C(=O)OCC(C)(C)C2 (stereo partly drawn) [Example A565] | > 10000 | > 10000 | 1000 to 10000 | > 10000 | 10 to 100 | 100 to 1000 | > 10000 | 1000 to 10000 | 100 to 1000 | > 10000 | 1000 to 10000 | > 10000
6 | C=CC(=O)N1CC[C@H](C(=O)N(C)[C@H](C(=O)N[C@H]2Cc3cccc(c3)-c3ccc4c(c3)c(c(-c3cccnc3[C@H](C)OC)n4CC)CC(C)(C)COC(=O)[C@@H]3CCCN(N3)C2=O)C(C)C(F)(F)F)C1 (stereo partly drawn) [Example A641] | 1000 to 10000 | 1000 to 10000 | 1000 to 10000 | > 10000 | 10 to 100 | 100 to 1000 | 1000 to 10000 | 1000 to 10000 | 100 to 1000 | 1000 to 10000 | 1000 to 10000 | 1000 to 10000
7 | CCn1c(-c2cccnc2[C@H](C)OC)c2c3cc(ccc31)C1CCCN(C1)C[C@H](NC(=O)[C@@H](COC1CN(C(=O)C#CC(C)(C)N(C)C)C1)C(C)C)C(=O)N1CCC[C@H](N1)C(=O)OCC(C)(C)C2 [Example A646, (2R)-2-(((1-(4-(dimethylamino)-4-methylpent-2-ynoyl)azetidin-3-yl)oxy)methyl)-N-((6^3S,4S)-1^1-ethyl-1^2-(2-((S)-1-methoxyethyl)pyridin-3-yl)-10,10-dimethyl-5,7-dioxo-6^1,6^2,6^3,6^4,6^5,6^6-hexahydro-1^1H-8-oxa-1(5,3)-indola-6(1,3)-pyridazina-2(3,1)-piperidinacycloundecaphane-4-yl)-3-methylbutanamide] | > 10000 | > 10000 | > 10000 | > 10000 | 10 to 100 | 10 to 100 | > 10000 | > 10000 | 10 to 100 | > 10000 | > 10000 | > 10000
8 | C=CC(=O)C1CC[C@H](C(=O)N(C)[C@H](C(=O)N[C@H]2Cc3nsc(n3)-c3ccc4c(c3)c(c(-c3cccnc3[C@H](C)OC)n4CC)CC(C)(C)COC(=O)[C@@H]3CCCN(N3)C2=O)C(C)C)C1 (stereo partly drawn) [Example A694] | 100 to 1000 | 1000 to 10000 | 100 to 1000 | 1000 to 10000 | 10 to 100 | 100 to 1000 | 1000 to 10000 | 100 to 1000 | 100 to 1000 | 1000 to 10000 | 1000 to 10000 | 1000 to 10000
